Assay results taken from article PMC11581214, “Compound 4f, a novel brain-penetrant reversible monoacylglycerol inhibitor, ameliorates neuroinflammation, neuronal cell loss, and cognitive impairment in mice with kainic acid-induced neurodegeneration” (PLOS ONE, 2024).

Tests used:
[1] = biological target: T1, serotonin (5-hydroxytryptamine) 2B (Homo sapiens, UniProt P41595); assay: off-target panel of radioligand binding and functional assays (Eurofins), single concentration […]
T1 construct: gene HTR2B
T1 sequence (P41595 whole entry): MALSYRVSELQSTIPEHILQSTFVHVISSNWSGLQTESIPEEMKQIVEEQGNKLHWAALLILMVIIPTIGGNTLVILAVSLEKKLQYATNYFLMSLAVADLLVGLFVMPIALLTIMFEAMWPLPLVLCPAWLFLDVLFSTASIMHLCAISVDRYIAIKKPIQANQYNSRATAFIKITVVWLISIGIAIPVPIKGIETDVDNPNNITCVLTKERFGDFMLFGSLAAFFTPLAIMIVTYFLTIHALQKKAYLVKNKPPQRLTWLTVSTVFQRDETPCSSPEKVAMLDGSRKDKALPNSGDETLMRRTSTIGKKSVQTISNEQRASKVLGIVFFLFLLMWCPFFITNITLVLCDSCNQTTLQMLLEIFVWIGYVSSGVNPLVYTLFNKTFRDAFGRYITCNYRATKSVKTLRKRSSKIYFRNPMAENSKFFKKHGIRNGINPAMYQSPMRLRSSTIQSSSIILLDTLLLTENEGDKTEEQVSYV

[2] = biological target: T2, monoacylglycerol lipase (MAGL) (Mus musculus, UniProt O35678); assay: in vivo brain target occupancy by displacement of MAGL tracer T-211 (LC-MS/MS); brain 2-AG increase and AA decrease; type: cell-based
T2 construct: gene Mgll
T2 sequence (O35678 1-303): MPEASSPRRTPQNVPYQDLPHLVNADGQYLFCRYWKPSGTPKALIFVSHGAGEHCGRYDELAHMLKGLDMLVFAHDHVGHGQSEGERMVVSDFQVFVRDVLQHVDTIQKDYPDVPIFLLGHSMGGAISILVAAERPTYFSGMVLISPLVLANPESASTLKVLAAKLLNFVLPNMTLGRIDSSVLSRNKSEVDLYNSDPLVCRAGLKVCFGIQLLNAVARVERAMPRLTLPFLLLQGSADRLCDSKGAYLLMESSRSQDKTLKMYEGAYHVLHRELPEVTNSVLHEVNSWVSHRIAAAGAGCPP

[3] = biological target: T3, monoamine oxidase-B (Homo sapiens, UniProt P27338); assay: off-target panel enzyme assay (Eurofins), single concentration […]; type: biochemical
T3 construct: gene MAOB
T3 sequence (P27338 2-520): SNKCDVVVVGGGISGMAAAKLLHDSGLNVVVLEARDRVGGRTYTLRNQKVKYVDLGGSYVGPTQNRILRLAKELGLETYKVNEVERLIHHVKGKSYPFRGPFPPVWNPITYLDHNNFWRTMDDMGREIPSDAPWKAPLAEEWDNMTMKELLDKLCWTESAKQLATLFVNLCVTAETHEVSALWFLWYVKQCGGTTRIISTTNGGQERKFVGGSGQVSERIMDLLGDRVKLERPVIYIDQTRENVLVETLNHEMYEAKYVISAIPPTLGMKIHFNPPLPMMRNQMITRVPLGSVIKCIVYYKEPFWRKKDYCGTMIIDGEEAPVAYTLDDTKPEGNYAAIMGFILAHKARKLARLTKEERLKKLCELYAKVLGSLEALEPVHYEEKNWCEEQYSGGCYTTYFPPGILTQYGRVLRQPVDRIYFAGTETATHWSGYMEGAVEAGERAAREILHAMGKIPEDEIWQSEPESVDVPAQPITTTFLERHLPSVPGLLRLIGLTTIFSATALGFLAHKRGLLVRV

inhibition at 10 µM [1]: 81% | receptor occupancy at 1 mg/kg [2]: > 99% | inhibition at 10 µM [3]: < 50%
SMILES: Cc1ccc(COC2CN(C(=O)[C@H]3C[C@]4(COC(=O)N4)C3)C2)cc1Cl [4f]
